ChEMBL document CHEMBL1201862, “PubChem BioAssay data set” (2004)
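Cells were grown in 96-well plates and exposed to each compound for 48 hours at five concentrations; endpoints were interpolated linearly between bracketing concentrations, or set to the highest concentration if not reached. Abbreviation: GI50, concentration required for 50% inhibition of growth.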 Activity calls are given as the source filed them. No stated cut-off is given here; in the data, active = GI50 up to about 1.1 µM and inactive = higher.

Tests used:
Assay in all cases: NCI anticancer screen, dose series, 48 h
A498 = test system: A498
CAKI-1 = test system: CAKI-1
HCC 2998 = test system: HCC 2998
HCT-15 = test system: HCT-15
IGROV-1 = test system: IGROV-1
NCI-H226 = test system: NCI-H226
NCI-H23 = test system: NCI-H23
OVCAR-3 = test system: OVCAR-3
OVCAR-4 = test system: OVCAR-4
OVCAR-8 = test system: OVCAR-8
SF-268 = test system: SF-268
SF-539 = test system: SF-539
SK-OV-3 = test system: SK-OV-3
SNB-19 = test system: SNB-19
SR = test system: SR
TK-10 = test system: TK-10
UACC-62 = test system: UACC-62
UO-31 = test system: UO-31
HL-60 = test system: HL-60
HOP-92 = test system: HOP-92

| SMILES | GI50 (A498) | GI50 (CAKI-1) | GI50 (HCC 2998) | GI50 (HCT-15) [µM] | GI50 (IGROV-1) | GI50 (NCI-H226) | GI50 (NCI-H23) | GI50 (OVCAR-3) | GI50 (OVCAR-4) | GI50 (OVCAR-8) | GI50 (SF-268) | GI50 (SF-539) | GI50 (SK-OV-3) | GI50 (SNB-19) | GI50 (SR) | GI50 (TK-10) | GI50 (UACC-62) | GI50 (UO-31) | GI50 (HL-60) | GI50 (HOP-92) |
| --- | --- | --- | --- | --- | --- | --- | --- | --- | --- | --- | --- | --- | --- | --- | --- | --- | --- | --- | --- | --- |
| COc1cc(/C=C2\C[C@H]3[C@@H]4CCc5cc(O)ccc5[C@H]4CC[C@]3(C)C2=O)cc(OC)c1OC | 32.4 µM (inactive) | 11.4 µM (inactive) | 12.9 µM (inactive) | 25.8 | 15.3 µM (inactive) | 6.05 µM (inactive) | 14.4 µM (inactive) | 11.4 µM (inactive) | 15.8 µM (inactive) | 15.5 µM (inactive) | 8.73 µM (inactive) | 25.8 µM (inactive) | 21.2 µM (inactive) | 19.9 µM (inactive) | 3.21 µM (inactive) | 8.81 µM (inactive) | 22.7 µM (inactive) | 11.6 µM (inactive) |  |  |
| CN1C2CCC1CC(CCNC(c1ccccc1)c1ccccc1)C2 (stereo not given) | 23.8 µM (inactive) | 59.7 µM (inactive) |  | 33.7 | 62.7 µM (inactive) | 36.9 µM (inactive) | > 100 µM (inactive) | 47.4 µM (inactive) | > 100 µM (inactive) | 57 µM (inactive) | 35.3 µM (inactive) | 17.9 µM (inactive) | > 100 µM (inactive) | > 100 µM (inactive) | 15.3 µM (inactive) | 22.2 µM (inactive) |  | 17.2 µM (inactive) | 31 µM (inactive) | 18 µM (inactive) |
| C#CC1(O)C(COP(=O)(O)OC(COCCCCCCCCCCCCCCCCCC)COP(=O)(O)OCC2OC(n3cc(C)c(=O)[nH]c3=O)CC2N=[N+]=[N-])OC(n2ccc(N)nc2=O)C1O (stereo not given) | 1.69 µM (inactive) | 0.31 µM (active) |  | 0.582 | 0.381 µM (active) | 1.56 µM (inactive) | 2.61 µM (inactive) | 4.58 µM (inactive) | 4.45 µM (inactive) | 0.881 µM (active) | 0.957 µM (active) | 0.282 µM (active) | 4 µM (inactive) | 1.8 µM (inactive) | < 0.0429 µM (active) | 0.505 µM (active) | 1.88 µM (inactive) | 0.194 µM (active) | 0.617 µM (active) | 0.91 µM (active) |
| CN(C)c1ccc(C=C2C(=O)OC(C)(C)OC2=O)cc1Br |  | > 100 µM (inactive) | > 100 µM (inactive) |  |  | > 100 µM (inactive) | > 100 µM (inactive) | > 100 µM (inactive) | > 100 µM (inactive) | > 100 µM (inactive) | > 100 µM (inactive) | > 100 µM (inactive) | > 100 µM (inactive) | > 100 µM (inactive) | 59.6 µM (inactive) | > 100 µM (inactive) | > 100 µM (inactive) | > 100 µM (inactive) | 41.1 µM (inactive) | 29.4 µM (inactive) |
| CC12C(=O)OC(=O)C1(C)C1C=CC2O1 (stereo not given) | > 100 µM (inactive) | 54.7 µM (inactive) | > 100 µM (inactive) | > 100 | > 100 µM (inactive) | 21.7 µM (inactive) | > 100 µM (inactive) | 30.3 µM (inactive) |  | > 100 µM (inactive) | 59.7 µM (inactive) | > 100 µM (inactive) | > 100 µM (inactive) | 37.8 µM (inactive) | > 100 µM (inactive) | 78.7 µM (inactive) | > 100 µM (inactive) | 62.1 µM (inactive) | > 100 µM (inactive) |  |
| CC(C)(C)[Si](C)(C)OC1(CCc2ccccc2OS(=O)(=O)C(F)(F)F)CCCC=C1COCc1ccccc1 (stereo not given) | 66.4 µM (inactive) | > 100 µM (inactive) |  | 12.5 | 4.81 µM (inactive) | 46.1 µM (inactive) | 9.62 µM (inactive) | > 100 µM (inactive) | 6.05 µM (inactive) |  |  | > 100 µM (inactive) | > 100 µM (inactive) |  | 1.86 µM (inactive) | > 100 µM (inactive) | 29.5 µM (inactive) |  | 2.42 µM (inactive) |  |
| O=C1/C(=C/c2ccc(Cl)cc2)Sc2scc(-c3cccc([N+](=O)[O-])c3)[n+]21 |  | 3.01 µM (inactive) | 2.8 µM (inactive) | 1.9 | 2.96 µM (inactive) | 29.8 µM (inactive) | 4.95 µM (inactive) | 8.09 µM (inactive) | 6.97 µM (inactive) | 7.55 µM (inactive) | 2.95 µM (inactive) | 2.3 µM (inactive) | 10.5 µM (inactive) | 15.6 µM (inactive) | 0.296 µM (active) | 2.13 µM (inactive) | 3.16 µM (inactive) | 4.43 µM (inactive) | 0.308 µM (active) | 2.17 µM (inactive) |
| COC(=O)C(CCCCNC(=O)CNC(=O)OCc1ccccc1)NC(=O)C(CCCCNC(=O)CNC(=O)OCc1ccccc1)NC(=O)OCc1ccccc1 (stereo not given) | > 100 µM (inactive) | > 100 µM (inactive) | 52.2 µM (inactive) | > 100 | > 10 µM (inactive) | > 100 µM (inactive) | > 100 µM (inactive) | 53.3 µM (inactive) | 29.2 µM (inactive) | 57.3 µM (inactive) | 78 µM (inactive) |  |  | 93.3 µM (inactive) | 41.8 µM (inactive) | > 100 µM (inactive) | 40 µM (inactive) | > 100 µM (inactive) | 83.2 µM (inactive) |  |
